Measured values reported in patent publication US6444612B1, “Use of 5-amino-pyrazol-derivatives for combating micro-organisms” (Bayer Aktiengesellschaft, priority 1998, dated 2002).

Legend:
[1] = system: Venturia inaequalis; experiment: Venturia test (apple)/protective; format: in vivo; settings: protective, application rate 100 g/ha, evaluation 12 days after inoculation, 100% = no infection
Description: Venturia Test (Apple)/Protective
Solvent: 47 parts by weight of acetone
Emulsifier: 3 parts by weight of alkylaryl polyglycol ether
To produce a suitable preparation of active compound, 1 part by weight of active compound is mixed with the stated amounts of solvent and emulsifier, and the concentrate is diluted with water to the desired concentration.
To test for protective activity, young plants are sprayed with the preparation of active compound at the stated application rate. After the spray coating has dried on, the plants are inoculated with an aqueous conidia suspension of the apple pathogen Venturia inaequalis and then remain in an incubation cabin at about 20° C. and 100% relative atmospheric humidity for 1 day.
The plants are then placed in the greenhouse at about 21° C. and a relative atmospheric humidity of about 90%.
Evaluation is carried out 12 days after the inoculation. 0% means an efficacy which corresponds to that of the control, whereas an efficacy of 100% means that no infection is observed.

[2] = log P value (physical constant); format: physicochemical; settings: for Physical constant (logP): Table 4

| Compound | Physical constant (logP) [2] | also measured |
| --- | --- | --- |
| CCc1cc(NC(=O)Cc2ccc(-c3ccc(OC(F)(F)F)cc3)cc2)n(C)n1 |  | Efficacy in % [1]: 96% |
| CCOC(=O)c1c(CC)nn(C)c1NC(=O)Cc1cccc(Cl)c1 [Example 89, 5-(3-chloro-phenyl-acetyl)-amino-3-ethyl4-ethoxycarbonyl-l-methyl-pyrazole] |  | logP ([2]; acidic): 2.65 |
| CCOC(=O)c1c(CC)nn(C)c1NC(=O)Cc1ccc(OCc2ccccc2)cc1 [Example 104] | logP = 3.26 |  |
| CCc1cc(NC(=O)Cc2ccc(Br)cc2)n(C)n1 [Example 105] | logP = 2.13 |  |
| CCOC(=O)c1c(CC)nn(C)c1NC(=O)C=Cc1ccc(Oc2ccc(C#N)cc2)cc1 [Example 106] | logP = 3.16 |  |
| CCOC(=O)c1c(CC)nn(C)c1NC(=O)C=Cc1ccc(Oc2ccc([N+](=O)[O-])cc2)cc1 [Example 107] | logP = 3.41 |  |
| CCc1nn(C)c(NC(=O)C=Cc2ccc(Oc3ccc([N+](=O)[O-])cc3)cc2)c1C#N [Example 108] | logP = 3.05 |  |
| Cn1nc(C2CC2)cc1NC(=O)Cc1ccc(Oc2ccc(C#N)cc2)cc1 [Example 109] | logP = 2.45 |  |
| Cn1nc(C2CC2)c(Cl)c1NC(=O)Cc1ccc(Oc2ccc(C#N)cc2)cc1 [Example 110] | logP = 2.90 |  |
| CCOC(=O)c1c(CC)nn(C)c1NC(=O)Cc1cccc(Oc2ccccc2)c1 [Example 111] | logP = 3.28 |  |
| Cc1cc(NC(=O)Cc2ccccc2Cl)n(CCC#N)n1 [Example 113] | logP = 1.77 |  |
| CC(=O)c1cccc(CC(=O)Nc2c(C#N)c(C)nn2C)c1 [Example 114] | logP = 1.48 |  |
| COC(=O)c1c(C)nn(C)c1NC(=O)Cc1cccc(C(C)=O)c1 [Example 116] | logP = 1.50 |  |
| Cc1cc(NC(=O)Cc2ccc(Cl)cc2Cl)n(C)n1 [Example 121] | logP = 2.06 |  |
| Cc1nn(C)c(NC(=O)Cc2ccccc2C(=O)O)c1Cl [Example 122] | logP = 1.50 |  |
| CC(=NO)c1cccc(CC(=O)Nc2c(Cl)c(C)nn2C)c1 [Example 123] | logP = 1.85 |  |
| CON=C(C)c1cccc(CC(=O)Nc2c(Cl)c(C)nn2C)c1 [Example 124] | logP = 2.32 |  |
| CCON=C(C)c1cccc(CC(=O)Nc2c(Cl)c(C)nn2C)c1 [Example 125] | logP = 2.88 |  |

| Compound | Physical constant (logP) [2] | also measured |
| --- | --- | --- |
| CC(=NOCc1ccccc1)c1cccc(CC(=O)Nc2c(Cl)c(C)nn2C)c1 [Example 126] | logP = 3.31 |  |
| CC(=NOCc1ccc(C(F)(F)F)cc1)c1cccc(CC(=O)Nc2c(Cl)c(C)nn2C)c1 [Example 127] | logP = 3.83 |  |
| CC(=NOCc1ccc(Cl)nc1)c1cccc(CC(=O)Nc2c(Cl)c(C)nn2C)c1 [Example 128] | logP = 2.80 |  |
| CC(=NOCc1ccc(Cl)cc1Cl)c1cccc(CC(=O)Nc2c(Cl)c(C)nn2C)c1 [Example 129] | logP = 4.30 |  |
| CC(=NOC(C)(C)C)c1cccc(CC(=O)Nc2c(Cl)c(C)nn2C)c1 [Example 130] | logP = 3.53 |  |
| CC(=NOCc1c(Cl)cccc1Cl)c1cccc(CC(=O)Nc2c(Cl)c(C)nn2C)c1 [Example 131] | logP = 3.91 |  |
| C=CCON=C(C)c1cccc(CC(=O)Nc2c(Cl)c(C)nn2C)c1 [Example 132] | logP = 2.80 |  |
| CCCNC(=O)c1ccccc1CC(=O)Nc1c(Cl)c(C)nn1C [Example 133] | logP = 1.92 |  |
| Cc1nn(C)c(NC(=O)Cc2ccccc2C(=O)NCc2ccc(Cl)nc2)c1Cl [Example 134] | logP = 1.91 |  |
| COC(=O)c1c(C)nn(C)c1NC(=O)Cc1cccc(Br)c1 [Example 135] | logP = 2.11 |  |
| Cc1nn(C)c(NC(=O)Cc2ccc(-c3ccccc3)cc2)c1Cl [Example 139] | logP = 2.81 |  |
| Cc1ccc(-c2cccc(Cl)c2)cc1CC(=O)Nc1c(Cl)c(C)nn1C [Example 140] | logP = 3.53 |  |
| Cc1ccc(-c2ccc(Cl)cc2)c(C)c1CC(=O)Nc1c(Cl)c(C)nn1C [Example 144] | logP = 3.84 |  |
| Cc1nn(C)c(NC(=O)Cc2c(F)cc(F)c(F)c2C(F)(F)F)c1Cl [Example 148] | logP = 2.60 |  |
| Cc1nn(C)c(NC(=O)Cc2c(F)cc(F)c(F)c2C(F)(F)F)c1C#N [Example 160] | logP = 2.32 |  |
| CCOC(=O)c1c(CC)nn(C)c1NC(=O)Cc1cccc(Oc2ccc(OC(F)(F)F)cc2)c1 [drawing 290] |  | Efficacy in % [1]: 90% |
| CCOC(=O)c1c(CC)nn(C)c1NC(=O)Cc1ccc(-c2ccc(OC(F)(F)F)cc2)cc1 [drawing 291] |  | Efficacy in % [1]: 93% |
| CCc1nn(C)c(NC(=O)Cc2ccc(-c3ccc(OC(F)(F)F)cc3)cc2)c1Cl [drawing 292] |  | Efficacy in % [1]: 96% |

Second part, led by results:

| Physical constant (logP) [2] | Compound | also measured |
| --- | --- | --- |
| logP = 3.01 | CCc1nn(C)c(NC(=O)Cc2c(C)cc(C)cc2C)c1Cl [Example 102] |  |
| logP = 1.71 | CCc1nn(C)c(NC(=O)Cc2cccc(C(C)=O)c2)c1C#N [Example 115] |  |
| logP = 1.88 | CC(=O)Oc1cccc(CC(=O)Nc2c(C#N)c(C)nn2C)c1 [Example 119] |  |
| logP = 1.84 | CCc1nn(C)c(NC(=O)Cc2ccc(OC(C)=O)cc2)c1C#N [Example 120] |  |
| logP = 2.83 | CCc1nn(C)c(NC(=O)Cc2c(C)cc(C)cc2C)c1C#N [Example 136] |  |
| logP = 2.36 | Cc1cc(C)c(CC(=O)Nc2c(C#N)c(C)nn2C)c(C)c1 [Example 137] |  |
| logP = 3.44 | Cc1ccc(Oc2ccccc2CC(=O)Nc2c(Cl)c(C)nn2C)c(C)c1 [Example 138] |  |
| logP = 4.09 | Cc1cc(C)cc(-c2cc(C)c(CC(=O)Nc3c(Cl)c(C)nn3C)c(C)c2)c1 [Example 141] |  |
| logP = 3.25 | COc1ccccc1-c1cc(C)c(CC(=O)Nc2c(Cl)c(C)nn2C)c(C)c1 [Example 142] |  |
| logP = 3.79 | Cc1cc(-c2cccc(Cl)c2)cc(C)c1CC(=O)Nc1c(Cl)c(C)nn1C [Example 143] |  |
| logP = 3.64 | Cc1cc(C)c(-c2ccccc2Cl)cc1CC(=O)Nc1c(Cl)c(C)nn1C [Example 145] |  |
| logP = 3.82 | Cc1cc(C)c(-c2ccc(Cl)cc2)cc1CC(=O)Nc1c(Cl)c(C)nn1C [Example 146] |  |
| logP = 4.08 | Cc1cc(C)c(-c2ccc(Cl)cc2)c(C)c1CC(=O)Nc1c(Cl)c(C)nn1C [Example 147] |  |
| logP = 3.17 | Cc1ccc(Oc2ccccc2CC(=O)Nc2c(C#N)c(C)nn2C)c(C)c1 [Example 149] |  |
| logP = 2.57 | Cc1nn(C)c(NC(=O)Cc2ccc(-c3ccccc3)cc2)c1C#N [Example 150] |  |
| logP = 3.20 | Cc1ccc(-c2ccc(Cl)cc2)cc1CC(=O)Nc1c(C#N)c(C)nn1C [Example 151] |  |
| logP = 3.88 | Cc1cc(C)cc(-c2cc(C)c(CC(=O)Nc3c(C#N)c(C)nn3C)c(C)c2)c1 [Example 152] |  |

| Physical constant (logP) [2] | Compound | also measured |
| --- | --- | --- |
| logP = 2.95 | COc1ccccc1-c1cc(C)c(CC(=O)Nc2c(C#N)c(C)nn2C)c(C)c1 [Example 153] |  |
| logP = 3.46 | Cc1cc(-c2ccc(Cl)cc2)cc(C)c1CC(=O)Nc1c(C#N)c(C)nn1C [Example 154] |  |
| logP = 3.42 | Cc1cc(-c2cccc(Cl)c2)cc(C)c1CC(=O)Nc1c(C#N)c(C)nn1C [Example 155] |  |
| logP = 3.43 | Cc1ccc(-c2ccc(Cl)cc2)c(C)c1CC(=O)Nc1c(C#N)c(C)nn1C [Example 156] |  |
| logP = 3.24 | Cc1cc(C)c(-c2ccccc2Cl)cc1CC(=O)Nc1c(C#N)c(C)nn1C [Example 157] |  |
| logP = 3.49 | Cc1cc(C)c(-c2ccc(Cl)cc2)cc1CC(=O)Nc1c(C#N)c(C)nn1C [Example 158] |  |
| logP = 3.70 | Cc1cc(C)c(-c2ccc(Cl)cc2)c(C)c1CC(=O)Nc1c(C#N)c(C)nn1C [Example 159] |  |
| logP = 3.44 | CCc1nn(C)c(NC(=O)Cc2ccccc2Oc2ccc(C)cc2C)c1C#N [Example 161] |  |
| logP = 2.81 | CCc1nn(C)c(NC(=O)Cc2ccc(-c3ccccc3)cc2)c1C#N [Example 162] |  |
| logP = 3.49 | CCc1nn(C)c(NC(=O)Cc2cc(-c3ccc(Cl)cc3)ccc2C)c1C#N [Example 163] |  |
| logP = 3.96 | CCc1nn(C)c(NC(=O)Cc2c(C)cc(-c3cc(C)cc(C)c3)cc2C)c1C#N [Example 164] |  |
| logP = 3.20 | CCc1nn(C)c(NC(=O)Cc2c(C)cc(-c3ccccc3OC)cc2C)c1C#N [Example 165] |  |
| logP = 3.74 | CCc1nn(C)c(NC(=O)Cc2c(C)cc(-c3ccc(Cl)cc3)cc2C)c1C#N [Example 166] |  |
| logP = 3.70 | CCc1nn(C)c(NC(=O)Cc2c(C)cc(-c3cccc(Cl)c3)cc2C)c1C#N [Example 167] |  |
| logP = 3.51 | CCc1nn(C)c(NC(=O)Cc2cc(-c3ccccc3Cl)c(C)cc2C)c1C#N [Example 169] |  |
| logP = 3.77 | CCc1nn(C)c(NC(=O)Cc2cc(-c3ccc(Cl)cc3)c(C)cc2C)c1C#N [Example 170] |  |
| logP = 2.59 | CCc1nn(C)c(NC(=O)Cc2c(F)cc(F)c(F)c2C(F)(F)F)c1C#N [Example 172] |  |
